Data taken from the supplement of paper PMC4862054.
Several values for one entry are separate records, joined by “and”; a condition that tells them apart may be missing. Equal entries are not always repeated.

How the values were obtained:
Conditions in all cases: incubation time: 72 h
BT-474 = assay: normalised response (% of control), CellTox Green; higher = less cell death (100 = DMSO, 0 = benzethonium chloride kill control)
Summary of the method: (§1)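 Breast cancer cell lines, seeded at 20 µl suspension per well, were incubated for 72 h in 384-well plates containing compound at 5 concentrations. These concentrations rose in 10-fold steps over a 10,000-fold range set for each compound. CellTox Green fluorescence (485/520 nm) was read, then CellTiter-Glo luminescence after 10 min at room temperature, and each plate was normalised to 0.1 % DMSO (100) and a positive kill control (0). Values are normalised signals, each at one concentration.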

BT-549 = assay: as above
Summary of the method: as §1

CAL-120 = assay: as above
Summary of the method: as §1

CAL-148 = assay: as above
Summary of the method: as §1

CAL-51 = assay: as above
Summary of the method: as §1

CAL-85-1 = assay: as above
Summary of the method: as §1

DU-4475 = assay: as above
Summary of the method: as §1

HCC1143 = assay: as above
Summary of the method: as §1

HCC1599 = assay: as above
Summary of the method: as §1

HCC1937 = assay: as above
Summary of the method: as §1

HDQ-P1 = assay: as above
Summary of the method: as §1

Hs578T [1] = assay: as above
Summary of the method: as §1

MCF-10A = assay: as above
Summary of the method: as §1

MDA-MB-231 = assay: as above
Summary of the method: as §1

MDA-MB-436 = assay: as above
Summary of the method: as §1

MDA-MB-453 = assay: as above
Summary of the method: as §1

MDA-MB-468 = assay: as above
Summary of the method: as §1

MFM-223 = assay: as above
Summary of the method: as §1

Hs578T [2] = assay: normalised viability (% of control), CellTiter-Blue; higher = more viable cells (about 100 = DMSO control)
Summary of the method: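 Each value is normalised viability at a single listed concentration of the series. Breast cancer cell lines in 384-well plates were incubated 72 h with compound and read by CellTiter-Blue fluorescence at 560/590 nm, with vehicle set to 100 and a positive kill control to 0 on every plate.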

## COc1ccc(-c2cc3c(C)nc(N)nc3n([C@H]3CC[C@H](OCCO)CC3)c2=O)cn1 (1000 nM)
BT-474
  normalised response: 49.8%
BT-549
  normalised response: 115%
CAL-120
  normalised response: 98.5%
CAL-148
  normalised response: 51.2%
CAL-51
  normalised response: 43.9%
CAL-85-1
  normalised response: 79.9%
DU-4475
  normalised response: 86.2%
HCC1143
  normalised response: 79.8%
HCC1599
  normalised response: 90.4%
HCC1937
  normalised response: -51.2%
HDQ-P1
  normalised response: 84.7%
Hs578T [1]
  normalised response: 101%
MCF-10A
  normalised response: 93.2%
MDA-MB-231
  normalised response: 76.8%
MDA-MB-436
  normalised response: 113%
MDA-MB-453
  normalised response: 84.2%
MDA-MB-468
  normalised response: 123%
MFM-223
  normalised response: 81%

## COc1cc(CCc2cc(NC(=O)c3ccc(N4CC(C)NC(C)C4)cc3)n[nH]2)cc(OC)c1 (stereo not given) [AZD4547] (100 nM)
BT-474
  normalised response: 96.5%
BT-549
  normalised response: 118%
CAL-120
  normalised response: 99.3%
CAL-148
  normalised response: 101%
CAL-51
  normalised response: 95.6%
CAL-85-1
  normalised response: 108%
DU-4475
  normalised response: 97.8%
HCC1143
  normalised response: 82%
HCC1599
  normalised response: 90.6%
HCC1937
  normalised response: 113%
HDQ-P1
  normalised response: 89.4%
Hs578T [1]
  normalised response: 94%
MCF-10A
  normalised response: 105%
MDA-MB-231
  normalised response: 90.1%
MDA-MB-436
  normalised response: 91%
MDA-MB-453
  normalised response: 100%
MDA-MB-468
  normalised response: 117%
MFM-223
  normalised response: 97.4%

## CCC/C=C/C=C/C(=O)O[C@H]1/C(=C/C(=O)OC)C[C@H]2C[C@H]([C@@H](C)O)OC(=O)C[C@H](O)C[C@@H]3C[C@H](OC(C)=O)C(C)(C)[C@](O)(C[C@@H]4C/C(=C/C(=O)OC)C[C@H](/C=C/C(C)(C)[C@]1(O)O2)O4)O3 [Bryostatin 1] (10 nM)
BT-474
  normalised response: 106%
BT-549
  normalised response: 139%
CAL-120
  normalised response: 102%
CAL-148
  normalised response: 108%
CAL-51
  normalised response: 92%
CAL-85-1
  normalised response: 91.3%
DU-4475
  normalised response: 106%
HCC1143
  normalised response: 116%
HCC1599
  normalised response: 115%
HCC1937
  normalised response: 83.2%
Hs578T [1]
  normalised response: 109%
MCF-10A
  normalised response: 109%
MDA-MB-231
  normalised response: 117%
MDA-MB-436
  normalised response: 74.1%
MDA-MB-453
  normalised response: 99.9%
MDA-MB-468
  normalised response: 116%
MFM-223
  normalised response: 88%

## CO[C@@H](C(=O)N1Cc2[nH]nc(NC(=O)c3ccc(N4CCN(C)CC4)cc3)c2C1)c1ccccc1 [Danusertib] (1000 nM)
BT-474
  normalised response: 102%
BT-549
  normalised response: 112%
CAL-120
  normalised response: 94%
CAL-148
  normalised response: 45.1%
CAL-51
  normalised response: 57.8%
CAL-85-1
  normalised response: 97.5%
DU-4475
  normalised response: 97.3%
HCC1143
  normalised response: 66.9%
HCC1599
  normalised response: 104%
HCC1937
  normalised response: 129%
HDQ-P1
  normalised response: 105%
MCF-10A
  normalised response: 110%
MDA-MB-231
  normalised response: 101%
MDA-MB-453
  normalised response: 84.9%
MDA-MB-468
  normalised response: 51.4%
MFM-223
  normalised response: 92.9%

## Cc1nc(Nc2ncc(C(=O)Nc3c(C)cccc3Cl)s2)cc(N2CCN(CCO)CC2)n1 [Dasatinib]
Hs578T [2]; 1 nM
  normalised viability: 108% and 102%
Hs578T [2]; 100 nM
  normalised viability: 55.5% and 45.7%
Hs578T [2]; 1000 nM
  normalised viability: 27% and 24.8%

## Cc1nc(Nc2ncc(C(=O)Nc3c(C)cccc3Cl)s2)cc(N2CCN(CCO)CC2)n1 [Dasatinib] (100 nM)
BT-474
  normalised response: 94.4%
BT-549
  normalised response: 85.9%
CAL-120
  normalised response: 97.2%
CAL-148
  normalised response: 98.8%
CAL-51
  normalised response: 68.4%
CAL-85-1
  normalised response: 74%
DU-4475
  normalised response: 102%
HCC1143
  normalised response: 70.1%
HCC1599
  normalised response: 95.6%
HCC1937
  normalised response: 5.95%
HDQ-P1
  normalised response: 90.2%
Hs578T [1]
  normalised response: 90.8%
MCF-10A
  normalised response: 112%
MDA-MB-231
  normalised response: 84.3%
MDA-MB-436
  normalised response: 107%
MDA-MB-453
  normalised response: 97.2%
MDA-MB-468
  normalised response: 101%
MFM-223
  normalised response: 91.5%

## Cc1c(CN2CCN(C(=O)[C@H](C)O)CC2)sc2c(N3CCOCC3)nc(-c3cnc(N)nc3)nc12 [GDC-0980] (1000 nM)
BT-474
  normalised response: 85.6%
BT-549
  normalised response: 108%
CAL-120
  normalised response: 103%
CAL-148
  normalised response: 68.3%
CAL-51
  normalised response: 90.8%
CAL-85-1
  normalised response: 97.7%
DU-4475
  normalised response: 98.7%
HCC1143
  normalised response: 85%
HCC1599
  normalised response: 99.9%
HCC1937
  normalised response: 107%
HDQ-P1
  normalised response: 103%
Hs578T [1]
  normalised response: 107%
MCF-10A
  normalised response: 100%
MDA-MB-231
  normalised response: 98.8%
MDA-MB-436
  normalised response: 102%
MDA-MB-453
  normalised response: 104%
MDA-MB-468
  normalised response: 117%
MFM-223
  normalised response: 76.5%

## Nc1cccc2c1CN(C1CCC(=O)NC1=O)C2=O (stereo not given) [Lenalidomide] (1000 nM)
BT-474
  normalised response: 99.8%
BT-549
  normalised response: 125%
CAL-120
  normalised response: 96.9%
CAL-51
  normalised response: 104%
CAL-85-1
  normalised response: 92.2%
DU-4475
  normalised response: 103%
HCC1143
  normalised response: 111%
HCC1599
  normalised response: 105%
HCC1937
  normalised response: 113%
HDQ-P1
  normalised response: 104%
Hs578T [1]
  normalised response: 94.5%
MCF-10A
  normalised response: 108%
MDA-MB-231
  normalised response: 109%
MDA-MB-436
  normalised response: 88.4%
MDA-MB-453
  normalised response: 103%
MDA-MB-468
  normalised response: 122%
MFM-223
  normalised response: 99.6%

## C[C@]12O[C@H](C[C@]1(O)CO)n1c3ccccc3c3c4c(c5c6ccccc6n2c5c31)CNC4=O [Lestaurtinib] (100 nM)
BT-474
  normalised response: 94%
BT-549
  normalised response: 99.7%
CAL-120
  normalised response: 96.2%
CAL-148
  normalised response: 95.8%
CAL-51
  normalised response: 56.4%
CAL-85-1
  normalised response: 83.4%
DU-4475
  normalised response: 91.5%
HCC1143
  normalised response: 116%
HCC1599
  normalised response: 74.8%
HCC1937
  normalised response: 81.8%
HDQ-P1
  normalised response: 105%
Hs578T [1]
  normalised response: 96.2%
MCF-10A
  normalised response: 107%
MDA-MB-436
  normalised response: 66.7%
MDA-MB-453
  normalised response: 102%
MDA-MB-468
  normalised response: 69.6%
MFM-223
  normalised response: 86.4%

## O=C1c2c(O)ccc(O)c2C(=O)c2c(NCCNCCO)ccc(NCCNCCO)c21 [Mitoxantrone] (100 nM)
BT-474
  normalised response: 101%
BT-549
  normalised response: 117%
CAL-120
  normalised response: -30.1%
CAL-148
  normalised response: 82.3%
CAL-51
  normalised response: 92.8%
CAL-85-1
  normalised response: 101%
DU-4475
  normalised response: 99.1%
HCC1143
  normalised response: 109%
HCC1599
  normalised response: 91%
HCC1937
  normalised response: 117%
HDQ-P1
  normalised response: 101%
Hs578T [1]
  normalised response: 106%
MCF-10A
  normalised response: 113%
MDA-MB-231
  normalised response: 94.8%
MDA-MB-436
  normalised response: 87.8%
MDA-MB-453
  normalised response: 104%
MDA-MB-468
  normalised response: 158%
MFM-223
  normalised response: 101%
